Assay results from patent US20230406885A1, “CYCLIC PEPTIDES FOR TRAPPING INTERLEUKIN-1 BETA” (MERCK SHARP & DOHME LLC, priority 2022, published 2023).
*1 amine or outer side, *2 acyl side, *3 side chain or, on linkers, in order; H or OH if unused. Where a SMILES comes first, the peptide text is derived from it. [ ]: non-standard residue; d: D form. Phe(4-(4-Ac-piperazinyl)) = CC(=O)N1CCN(c2ccc(C[C@H](N)C(=O)O)cc2)CC1; Trp(4-Cl)(βS-Me) = C[C@@H](c1c[nH]c2cccc(Cl)c12)[C@H](N)C(=O)O; Bip(4'-COOH) = N[C@@H](Cc1ccc(-c2ccc(C(=O)O)cc2)cc1)C(=O)O; X3 = CC(=O)N1CCN(c2ncc(C[C@H](N[*:1])C(=O)[*:2])cn2)CC1; 1Nal(3S-Me) = C[C@@H](c1cccc2ccccc12)[C@H](N)C(=O)O; Ala(indazol-1-yl) = N[C@@H](Cn1ncc2ccccc21)C(=O)O; Ala(indolin-1-yl) = N[C@@H](CN1CCc2ccccc21)C(=O)O; hPhe(4-CF3) = N[C@@H](CCc1ccc(C(F)(F)F)cc1)C(=O)O; Phe(4-COOH) = N[C@@H](Cc1ccc(C(=O)O)cc1)C(=O)O; X4 = CCN[C@@H]1C[C@@H](C(=O)[*:2])N([*:1])C1; h3Pal(5-CN) = N#Cc1cncc(CC[C@H](N)C(=O)O)c1; Pro(4R-NH2) = N[C@H]1CN[C@H](C(=O)O)C1; 1Nal = N[C@@H](Cc1cccc2ccccc12)C(=O)O; AEF = NCCOc1ccc(C[C@H](N)C(=O)O)cc1; hTyr = N[C@@H](CCc1ccc(O)cc1)C(=O)O; 4Pal = N[C@@H](Cc1ccncc1)C(=O)O; dDab = NCC[C@@H](N)C(=O)O; Orn = NCCC[C@H](N)C(=O)O; dNMeA = CN[C@H](C)C(=O)O; Dab = NCC[C@H](N)C(=O)O; Nva = CCC[C@H](N)C(=O)O; Dap = NC[C@H](N)C(=O)O; Aib = CC(C)(N)C(=O)O

Biological target: T1, Recombinant human IL-1β (Homo sapiens, UniProt P01584)
T1 construct: purchased BioLegend 579404
Experiment: IL-6 assay in MRC5 cells: inhibition of IL-1β induced IL-6 secretion (AlphaLISA)
Format: cell-based
Details: inhibition of IL-1β induced IL-6 secretion in MRC5 cells; IL-1β pre-incubated 1 hour with compound; read-out: MRC5 IC50
Summary of the method: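 IL-1β at 2×EC80 in seeding medium (EMEM, 0.025% BSA) preincubated 1 h at ambient temperature with compound, then 3000 MRC5 cells/well added and incubated overnight at 37 °C, 5% CO2. IL-6 in conditioned medium quantified by AlphaLISA; IC50 from 4-parameter logistic fit.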

T1 sequence (P01584 117-269): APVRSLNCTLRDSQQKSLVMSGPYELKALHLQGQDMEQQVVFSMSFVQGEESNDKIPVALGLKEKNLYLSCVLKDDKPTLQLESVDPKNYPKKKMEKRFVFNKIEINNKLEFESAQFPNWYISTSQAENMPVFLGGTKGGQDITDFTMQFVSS

IC50 [nM] | Structure (SMILES)
0.0258 | CCN[C@@H]1C[C@H]2C(=O)N[C@@H]([C@@H](C)c3cccc4ccccc34)C(=O)N[C@@H](CC(=O)O)C(=O)N(C)[C@H](C)C(=O)NCC(=O)N[C@@H](Cc3ccc(-c4ccc(C(=O)O)cc4)cc3)C(=O)N[C@@H](Cc3c[nH]c4ccccc34)C(=O)N[C@@H](CN)C(=O)N[C@H](C)C(=O)N[C@@H](CCc3ccc(O)cc3)C(=O)N[C@@H](Cc3ccc(-c4ccc(C(=O)O)cc4)cc3)C(=O)N[C@@H](Cc3c[nH]c4ccccc34)C(=O)N[C@@H](Cc3ccc(C(=O)O)cc3)C(=O)NCC(=O)N2C1 [Example 84] (cyclo([Bip(4'-COOH)]W[Phe(4-COOH)]G[X4][1Nal(3S-Me)]D[dNMeA]G[Bip(4'-COOH)]W[Dap][dA][hTyr]))
0.0945 | CC(=O)N1CCN(c2ncc(C[C@@H]3NC(=O)[C@H](CCc4ccc(O)cc4)NC(=O)[C@@H](C)NC(=O)[C@H](CN)NC(=O)[C@H](Cc4c[nH]c5ccccc45)NC(=O)[C@H](Cc4ccc(-c5ccc(C(=O)O)cc5)cc4)NC(=O)CNC(=O)[C@@H](C)N(C)C(=O)[C@H](CC(=O)O)NC(=O)[C@H]([C@@H](C)c4cccc5ccccc45)NC(=O)[C@@H]4C[C@@H](N)CN4C(=O)CNC(=O)[C@H](Cc4ccc(C(=O)O)cc4)NC(=O)[C@H](Cc4c[nH]c5ccccc45)NC3=O)cn2)CC1 [Example 88] (cyclo([X3]W[Phe(4-COOH)]G[Pro(4R-NH2)][1Nal(3S-Me)]D[dNMeA]G[Bip(4'-COOH)]W[Dap][dA][hTyr]))
0.271 | CC(=O)NCCOc1ccc(C[C@@H]2NC(=O)[C@H](CCc3ccc(O)cc3)NC(=O)[C@@H](C)NC(=O)[C@H](CN)NC(=O)[C@H](Cc3c[nH]c4ccccc34)NC(=O)[C@H](Cc3ccc(-c4ccc(C(=O)O)cc4)cc3)NC(=O)CNC(=O)[C@@H](C)N(C)C(=O)[C@H](C)NC(=O)[C@H]([C@@H](C)c3cccc4ccccc34)NC(=O)[C@@H]3C[C@@H](N)CN3C(=O)CNC(=O)[C@H](Cc3ccc(C(=O)O)cc3)NC(=O)[C@H](Cc3c[nH]c4ccccc34)NC2=O)cc1 [Example 89] (cyclo([AEF](Ac)W[Phe(4-COOH)]G[Pro(4R-NH2)][1Nal(3S-Me)]A[dNMeA]G[Bip(4'-COOH)]W[Dap][dA][hTyr]))
0.12 | CC(=O)NCCOc1ccc(C[C@@H]2NC(=O)[C@H](CCc3ccc(O)cc3)NC(=O)C(C)(C)NC(=O)[C@H](CCN)NC(=O)[C@H](Cc3cccc4ccccc34)NC(=O)[C@H](Cc3ccc(-c4ccc(C(=O)O)cc4)cc3)NC(=O)CNC(=O)[C@@H](C)N(C)C(=O)[C@H](CC(=O)O)NC(=O)[C@H]([C@@H](C)c3cccc4ccccc34)NC(=O)[C@@H]3C[C@@H](N)CN3C(=O)CNC(=O)[C@H](Cc3ccc(C(=O)O)cc3)NC(=O)[C@H](Cc3c[nH]c4ccccc34)NC2=O)cc1 [Example 93] (cyclo([AEF](Ac)W[Phe(4-COOH)]G[Pro(4R-NH2)][1Nal(3S-Me)]D[dNMeA]G[Bip(4'-COOH)][1Nal][Dab][Aib][hTyr]))
0.494 | CCC[C@@H]1NC(=O)[C@H](Cc2cccc3ccccc23)NC(=O)[C@H](Cc2ccc(-c3ccc(C(=O)O)cc3)cc2)NC(=O)CNC(=O)[C@@H](C)N(C)C(=O)[C@H](CC(=O)O)NC(=O)[C@H]([C@@H](C)c2cccc3ccccc23)NC(=O)[C@@H]2C[C@@H](N)CN2C(=O)CNC(=O)[C@H](Cc2ccc(C(=O)O)cc2)NC(=O)[C@H](Cc2c[nH]c3ccccc23)NC(=O)[C@H](Cc2ccc(OCCNC(C)=O)cc2)NC(=O)[C@H](C)NC(=O)[C@@H](C)NC1=O [Example 98] (cyclo([AEF](Ac)W[Phe(4-COOH)]G[Pro(4R-NH2)][1Nal(3S-Me)]D[dNMeA]G[Bip(4'-COOH)][1Nal][Nva][dA]A))
0.256 | CC(=O)NCCOc1ccc(C[C@@H]2NC(=O)[C@H](CCc3ccc(O)cc3)NC(=O)C(C)(C)NC(=O)[C@H](CCCN)NC(=O)[C@H](Cc3cccc4ccccc34)NC(=O)[C@H](Cc3ccc(-c4ccc(C(=O)O)cc4)cc3)NC(=O)CNC(=O)[C@@H](C)N(C)C(=O)[C@H](CC(=O)O)NC(=O)[C@H]([C@@H](C)c3cccc4ccccc34)NC(=O)[C@@H]3C[C@@H](N)CN3C(=O)CNC(=O)[C@H](Cc3ccc(C(=O)O)cc3)NC(=O)[C@H](Cc3c[nH]c4ccccc34)NC2=O)cc1 [Example 99] (cyclo([AEF](Ac)W[Phe(4-COOH)]G[Pro(4R-NH2)][1Nal(3S-Me)]D[dNMeA]G[Bip(4'-COOH)][1Nal][Orn][Aib][hTyr]))

The next lines start with the molecule.

Structure (SMILES) | IC50 [nM]
CC(=O)N1CCN(c2ccc(C[C@@H]3NC(=O)[C@H](CCc4ccc(O)cc4)NC(=O)[C@@H](CCN)NC(=O)CNC(=O)[C@H](Cc4c[nH]c5ccccc45)NC(=O)[C@H](Cc4ccc(-c5ccc(C(=O)O)cc5)cc4)NC(=O)CNC(=O)[C@@H](C)N(C)C(=O)[C@H](CC(=O)O)NC(=O)[C@H]([C@@H](C)c4c[nH]c5cccc(Cl)c45)NC(=O)[C@@H]4C[C@@H](N)CN4C(=O)CNC(=O)[C@H](Cc4ccc(C(=O)O)cc4)NC(=O)[C@H](Cc4c[nH]c5ccccc45)NC3=O)cc2)CC1 [Example 85] (cyclo([Phe(4-(4-Ac-piperazinyl))]W[Phe(4-COOH)]G[Pro(4R-NH2)][Trp(4-Cl)(βS-Me)]D[dNMeA]G[Bip(4'-COOH)]WG[dDab][hTyr])) | 0.0543
CC(=O)NCCOc1ccc(C[C@@H]2NC(=O)[C@H](CCc3cncc(C#N)c3)NC(=O)[C@@H](CCN)NC(=O)CNC(=O)[C@H](Cn3ncc4ccccc43)NC(=O)[C@H](Cc3ccc(-c4ccc(C(=O)O)cc4)cc3)NC(=O)CNC(=O)[C@@H](C)N(C)C(=O)[C@H](CC(=O)O)NC(=O)[C@H]([C@@H](C)c3cccc4ccccc34)NC(=O)[C@@H]3C[C@@H](N)CN3C(=O)CNC(=O)[C@H](Cc3ccc(C(=O)O)cc3)NC(=O)[C@H](Cc3c[nH]c4ccccc34)NC2=O)cc1 [Example 90] (cyclo([AEF](Ac)W[Phe(4-COOH)]G[Pro(4R-NH2)][1Nal(3S-Me)]D[dNMeA]G[Bip(4'-COOH)][Ala(indazol-1-yl)]G[dDab][h3Pal(5-CN)])) | 0.0507
CC(=O)NCCOc1ccc(C[C@@H]2NC(=O)[C@H](CCc3cncc(C#N)c3)NC(=O)[C@@H](CCN)NC(=O)CNC(=O)[C@H](CN3CCc4ccccc43)NC(=O)[C@H](Cc3ccc(-c4ccc(C(=O)O)cc4)cc3)NC(=O)CNC(=O)[C@@H](C)N(C)C(=O)[C@H](CC(=O)O)NC(=O)[C@H]([C@@H](C)c3cccc4ccccc34)NC(=O)[C@@H]3C[C@@H](N)CN3C(=O)CNC(=O)[C@H](Cc3ccc(C(=O)O)cc3)NC(=O)[C@H](Cc3c[nH]c4ccccc34)NC2=O)cc1 [Example 91] (cyclo([AEF](Ac)W[Phe(4-COOH)]G[Pro(4R-NH2)][1Nal(3S-Me)]D[dNMeA]G[Bip(4'-COOH)][Ala(indolin-1-yl)]G[dDab][h3Pal(5-CN)])) | 0.0234
CC(=O)NCCOc1ccc(C[C@@H]2NC(=O)CNC(=O)C(C)(C)NC(=O)[C@H](CCN)NC(=O)[C@H](Cc3cccc4ccccc34)NC(=O)[C@H](Cc3ccc(-c4ccc(C(=O)O)cc4)cc3)NC(=O)CNC(=O)[C@@H](C)N(C)C(=O)[C@H](CC(=O)O)NC(=O)[C@H]([C@@H](C)c3cccc4ccccc34)NC(=O)[C@@H]3C[C@@H](N)CN3C(=O)CNC(=O)[C@H](Cc3ccc(C(=O)O)cc3)NC(=O)[C@H](Cc3c[nH]c4ccccc34)NC2=O)cc1 [Example 92] (cyclo([AEF](Ac)W[Phe(4-COOH)]G[Pro(4R-NH2)][1Nal(3S-Me)]D[dNMeA]G[Bip(4'-COOH)][1Nal][Dab][Aib]G)) | 0.457
CC(=O)NCCOc1ccc(C[C@@H]2NC(=O)[C@H](CCc3cncc(C#N)c3)NC(=O)C(C)(C)NC(=O)[C@H](CN)NC(=O)[C@H](Cc3cccc4ccccc34)NC(=O)[C@H](Cc3ccc(-c4ccc(C(=O)O)cc4)cc3)NC(=O)CNC(=O)[C@@H](C)N(C)C(=O)[C@H](CC(=O)O)NC(=O)[C@H]([C@@H](C)c3cccc4ccccc34)NC(=O)[C@@H]3C[C@@H](N)CN3C(=O)CNC(=O)[C@H](Cc3ccc(C(=O)O)cc3)NC(=O)[C@H](Cc3c[nH]c4ccccc34)NC2=O)cc1 [Example 94] (cyclo([AEF](Ac)W[Phe(4-COOH)]G[Pro(4R-NH2)][1Nal(3S-Me)]D[dNMeA]G[Bip(4'-COOH)][1Nal][Dap][Aib][h3Pal(5-CN)])) | 0.0639
CC(=O)NCCOc1ccc(C[C@@H]2NC(=O)CNC(=O)C(C)(C)NC(=O)[C@H](CC(C)C)NC(=O)[C@H](Cc3cccc4ccccc34)NC(=O)[C@H](Cc3ccc(-c4ccc(C(=O)O)cc4)cc3)NC(=O)CNC(=O)[C@@H](C)N(C)C(=O)[C@H](CC(=O)O)NC(=O)[C@H]([C@@H](C)c3cccc4ccccc34)NC(=O)[C@@H]3C[C@@H](N)CN3C(=O)CNC(=O)[C@H](Cc3ccc(C(=O)O)cc3)NC(=O)[C@H](Cc3c[nH]c4ccccc34)NC2=O)cc1 [Example 95] (cyclo([AEF](Ac)W[Phe(4-COOH)]G[Pro(4R-NH2)][1Nal(3S-Me)]D[dNMeA]G[Bip(4'-COOH)][1Nal]L[Aib]G)) | 0.422
CC(=O)NCCOc1ccc(C[C@@H]2NC(=O)[C@H](C)NC(=O)[C@@H](C)NC(=O)[C@H](CC(C)C)NC(=O)[C@H](Cc3cccc4ccccc34)NC(=O)[C@H](Cc3ccc(-c4ccc(C(=O)O)cc4)cc3)NC(=O)CNC(=O)[C@@H](C)N(C)C(=O)[C@H](CC(=O)O)NC(=O)[C@H]([C@@H](C)c3cccc4ccccc34)NC(=O)[C@@H]3C[C@@H](N)CN3C(=O)CNC(=O)[C@H](Cc3ccc(C(=O)O)cc3)NC(=O)[C@H](Cc3c[nH]c4ccccc34)NC2=O)cc1 [Example 97] (cyclo([AEF](Ac)W[Phe(4-COOH)]G[Pro(4R-NH2)][1Nal(3S-Me)]D[dNMeA]G[Bip(4'-COOH)][1Nal]L[dA]A)) | 0.295
CC(=O)NCCOc1ccc(C[C@@H]2NC(=O)[C@H](CCc3ccc(C(F)(F)F)cc3)NC(=O)[C@@H](C)NC(=O)[C@H](CCN)NC(=O)[C@H](Cc3ccncc3)NC(=O)[C@H](Cc3ccc(-c4ccc(C(=O)O)cc4)cc3)NC(=O)CNC(=O)[C@@H](C)N(C)C(=O)[C@H](CC(=O)O)NC(=O)[C@H]([C@@H](C)c3cccc4ccccc34)NC(=O)[C@@H]3C[C@@H](N)CN3C(=O)CNC(=O)[C@H](Cc3ccc(C(=O)O)cc3)NC(=O)[C@H](Cc3c[nH]c4ccccc34)NC2=O)cc1 [Example 100] (cyclo([AEF](Ac)W[Phe(4-COOH)]G[Pro(4R-NH2)][1Nal(3S-Me)]D[dNMeA]G[Bip(4'-COOH)][4Pal][Dab][dA][hPhe(4-CF3)])) | 0.274
